From ChEMBL document CHEMBL1240322, “Small-molecule regulation of zebrafish gene expression” (Nat Chem Biol, 2007)
Numbering of substitutions follows the chain as printed. The source made the active and inactive calls. The calls are words filed in the database; no cut-off is given here.

Columns and labels:
[1] = tested on: T1, Ecdysone receptor (Bombyx mori), P49881 [V454I,Y474E]; test: (§1) Activation of Bombyx mori Ecdysone receptor V454I and Y474E mutant (amino acids 272-606)-mediated mylz2 gene expression expressed in AB zebrafish embryos transfected with cytomegalovirus promoter-driven expression construct encoding chimeric transactivator composed of DBD and homodimerization domains of yeast Gal4 (amino acids 1-146) and VP16 activation domain (amino acids (468-490) assessed as mylz2-promoter driven fats skeletal muscle specific GFP expression at 10 uM exposed during 3 to 48 hrs post fertilization by Gal4 dependent luciferase reportre gene assay relative to untreated control
T1 sequence (whole entry): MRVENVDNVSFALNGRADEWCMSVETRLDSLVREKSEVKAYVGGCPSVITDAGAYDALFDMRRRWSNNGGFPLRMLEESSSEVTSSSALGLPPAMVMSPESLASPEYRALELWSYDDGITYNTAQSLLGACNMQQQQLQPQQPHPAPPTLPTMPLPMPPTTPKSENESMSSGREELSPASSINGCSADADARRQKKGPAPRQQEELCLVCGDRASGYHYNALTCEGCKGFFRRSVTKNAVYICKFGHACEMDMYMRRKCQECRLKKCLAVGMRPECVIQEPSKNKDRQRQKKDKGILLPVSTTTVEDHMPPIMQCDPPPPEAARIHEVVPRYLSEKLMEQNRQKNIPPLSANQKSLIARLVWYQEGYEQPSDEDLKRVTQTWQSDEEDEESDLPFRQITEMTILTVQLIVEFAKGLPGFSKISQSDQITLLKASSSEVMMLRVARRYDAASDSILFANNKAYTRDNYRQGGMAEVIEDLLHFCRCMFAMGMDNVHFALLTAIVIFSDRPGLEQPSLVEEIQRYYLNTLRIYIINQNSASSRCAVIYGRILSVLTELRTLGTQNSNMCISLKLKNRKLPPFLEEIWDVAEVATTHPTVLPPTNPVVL

[2] = tested on: T1, Ecdysone receptor (Bombyx mori), P49881 [V454I,Y474E]; test: as §1, with “272-606)” for “272-606)-mediated mylz2 gene expression”, “(456-490)” for “(468-490) assessed as mylz2-promoter driven fats skeletal muscle specific GFP expression”, “for 16” for “during 3 to 48”, “hrs” for “hrs post fertilization”
[3] = tested on: T1, Ecdysone receptor (Bombyx mori), P49881 [V454I,Y474E]; test: as §1, with “272-606)” for “272-606)-mediated mylz2 gene expression”, “(468-490)” for “(468-490) assessed as mylz2-promoter driven fats skeletal muscle specific GFP expression”, “50” for “10”, “for 2” for “during 3”, “6 hrs at 4” for “48”
[4] = target: T2, Ecdysone receptor (Bombyx mori) (UniProt P49881); test: (§2) Activation of Bombyx mori Ecdysone receptor (amino acids 272-606) expressed in HEK293 cells transfected with cytomegalovirus promoter-driven expression construct encoding chimeric transactivator composed of DBD and homodimerization domains of yeast Gal4 (amino acids 1-146) and VP16 activation domain (amino acids (413-490) at 10 uM exposed for 16 hrs by Gal4 dependent luciferase reportre gene assay relative to untreated control; format: cell-based
T2 sequence (whole entry): T1 sequence (whole entry) with I454V, E474Y

[5] = target: T2, Ecdysone receptor (Bombyx mori); test: as §2, with “AB zebrafish embryos” for “HEK293 cells”, “(413-476)” for “(413-490)”
[6] = tested on: T1, Ecdysone receptor (Bombyx mori), P49881 [V454I,Y474E]; test: as §1, with “Induction of nuclear translocation” for “Activation”, “272-606)” for “272-606)-mediated mylz2 gene expression”, “(468-490)” for “(468-490) assessed as mylz2-promoter driven fats skeletal muscle specific GFP expression”, “1” for “10”, “for 30 mins at 4” for “during 3 to 48”
[7] = target: T2, Ecdysone receptor (Bombyx mori); test: as §2, with “(413-468)” for “(413-490)”; format: cell-based
[8] = target: T2, Ecdysone receptor (Bombyx mori); test: as §2, with “AB zebrafish embryos” for “HEK293 cells”
[9] = tested on: T1, Ecdysone receptor (Bombyx mori), P49881 [V454I,Y474E]; test: as §2, with “receptor V454I and Y474E mutant” for “receptor”, “AB zebrafish embryos” for “HEK293 cells”, “(468-490)” for “(413-490)”
[10] = target: T2, Ecdysone receptor (Bombyx mori); test: as §2, with “AB zebrafish embryos” for “HEK293 cells”, “([…])” for “(413-490)”
[11] = target: T2, Ecdysone receptor (Bombyx mori); test: as §2, with “AB zebrafish embryos” for “HEK293 cells”, “(413-468)” for “(413-490)”
[12] = target: T2, Ecdysone receptor (Bombyx mori); test: as §2, with “(468-490)” for “(413-490)”; format: cell-based
[13] = target: T2, Ecdysone receptor (Bombyx mori); test: as §2, with “AB zebrafish embryos” for “HEK293 cells”, “(468-490)” for “(413-490)”
[14] = target: T2, Ecdysone receptor (Bombyx mori); test: as §2, with “(456-490)” for “(413-490)”; format: cell-based
Danio rerio [15] = species: Danio rerio; test: Toxicity in zebrafish AB embryos assessed as induction of patterning deffects at 10 uM single dose measured 72 hrs post fertilization; format: organism-based; details: in vivo
[16] = tested on: T1, Ecdysone receptor (Bombyx mori), P49881 [V454I,Y474E]; test: as §1, with “myl7” for “mylz2”, “myl7-promoter” for “mylz2-promoter”, “heart” for “fats skeletal muscle”
[17] = target: T2, Ecdysone receptor (Bombyx mori); test: as §2, with “(413-456)” for “(413-490)”; format: cell-based
Danio rerio [18] = test: Toxicity in zebrafish AB embryos assessed as induction of patterning deffects at 10 uM dosed every 24 hrs measured 72 hrs post fertilization; format: organism-based; details: in vivo
[19] = target: T2, Ecdysone receptor (Bombyx mori); test: as §2, with “AB zebrafish embryos” for “HEK293 cells”, “(413-456)” for “(413-490)”
[20] = target: T2, Ecdysone receptor (Bombyx mori); test: as §2, with “(413-476)” for “(413-490)”; format: cell-based

With `CCc1ccc(C(=O)NN(C(=O)c2cc(C)cc(C)c2)C(C)(C)C)cc1` [TEBUFENOZIDE] the Activity [1] was 69%, the fold change (FC) [2] was 212 and the Activity [3] was “Active”. For the same compound, the fold change (FC) [4] was 14.5, the fold change (FC) [5] was 1.73 and the Activity [6] was “Active”. For the same compound, the fold change (FC) [7] was 114, the fold change (FC) [8] was 0.8 and the fold change (FC) [9] was 1070. It also gave a fold change (FC) [10] of 42.2, a fold change (FC) [11] of 5.05 and a fold change (FC) [12] of 880. For the same compound, the fold change (FC) [13] was 113, the fold change (FC) [14] was 1420 and the Activity (Danio rerio [15]) was “Non-toxic”. For the same compound, the Activity [16] was 44%, the fold change (FC) [17] was 139 and the Activity (Danio rerio [18]) was “Non-toxic”. It also gave a fold change (FC) [19] of 1.13 and a fold change (FC) [20] of 57.

In the case of `CC(C)CC[C@@H](O)[C@](C)(O)[C@H]1CC[C@@]2(O)C3=CC(=O)[C@@H]4C[C@@H](O)[C@@H](O)C[C@]4(C)[C@H]3CC[C@]12C` [PONASTERONE A], the fold change (FC) [4] was 6.05, the fold change (FC) [7] was 44 and the fold change (FC) [12] was 19.5. For the same compound, the fold change (FC) [14] was 55.5, the fold change (FC) [17] was 26.1 and the Activity (Danio rerio [18]) was “Non-toxic”. For the same compound, the fold change (FC) [20] was 18.7.

With `Cc1cc(C)cc(C(=O)N(NC(=O)c2ccc3c(c2C)OCCO3)C(C)(C)C)c1` the Activity (Danio rerio [18]) was “Non-toxic”.

With `COc1cccc(C(=O)NN(C(=O)c2cc(C)cc(C)c2)C(C)(C)C)c1C` [METHOXYFENOZIDE] the Activity (Danio rerio [18]) was “Non-toxic”.
